The numbers were not newly measured in patent US20110086074A1, “COMBINATIONS OF NIACIN AND AN OXICAM” (DR. REDDY'S LABORATORIES LTD., priority 2008, published 2011), which cites them from elsewhere.

The structures appear in SMILES notation.

For data set [1] the following is noted: n-octanol/pH 7.4 buffer.

For `Cc1cnc(NC(=O)C2=C(O)c3ccccc3S(=O)(=O)N2C)s1` [Meloxicam, 4-hydroxy-2-methyl-N-(5-methyl-2-thiazolyl)-2H-1,2-benzothiazine-3-carboxamide-1,1-dioxide], the Solubility in water entry is given as “practically insoluble in water”. Further, the Solubility in methanol entry (methanol) was “very slightly soluble in methanol”. Moreover, under “strong acids and bases, compared with water”, the “Solubility in strong acids and bases” value was “higher solubility observed in strong acids and bases”. For the same compound, the Apparent partition coefficient in data set [1] was 0.1.

Take `O=C(O)c1cccnc1` [Niacin, 3-pyridinecarboxylic acid]: the Solubility in water result is reported as “very soluble in water”.
